Test results published in publication doi:10.1101/2024.08.30.610474v2 (biorxiv, 2025).

System: honeyeater HK3 (hexokinase 3)
Assay: hexokinase activity assay kit
Type: biochemical, Phylidonyris novaehollandiae
Details: 25 °C; 200 nM enzyme; glucose 0.009375-1 mM; substrate inhibition

Km: 65.9 µM
Compound: OC[C@H]1OC(O)[C@H](O)[C@@H](O)[C@@H]1O (stereo partly shown) [glucose]
